pIC50: −log10 of the molar value.
Target: human recombinant USP30 (Homo sapiens (Human), UniProt Q70CQ3)
Test: Ubiquitin-Rhodamine 110 Assay for USP30 Activity
Format: biochemical
Settings: 0.2 nM USP30, 25 nM Ub-Rh110, 30 min preincubation
Experimental: The assay was performed in a final volume of 9 μL in assay buffer containing 20 mM Tris-HCl (pH 8.0, (IM Tris-HCl, pH 8.0 solution; Corning 46-031-CM)), 1 mM GSH (L-glutathione reduced, Sigma-Aldrich, G4251-100G), 0.03% BGG (0.22 μM filtered, Sigma, G7516-25G), and 0.01% Triton X-100 (Sigma, T9284-10L). Nanoliter quantities of 10-point, 3-fold serial dilution in DMSO were pre-dispensed into 1536 assay plates (Corning, #3724BC) for a final test concentration of 25 μM to 1.3 nM, top to lowest dose, respectively. Concentration and incubation times were optimized for the maximal signal-to-background while maintaining initial velocity conditions at a fixed substrate concentration. The final concentration of USP30 (human recombinant USP30, Boston Biochem, cat. #E-582) in the assay was 0.2 nM. Final substrate (Ub-Rh110; Ubiquitin-Rhodamine 110, UbiQ-126) concentration was 25 nM with [Ub-Rh110]<<Km. 3 μL of 2×USP30 was added to assay plates (pre-stamped with compound), preincubated for 30 minutes and then treated with 3 μL of 2×Ub-Rh110. Plates were incubated for 30 minutes at room temperature before addition of 3 μL of stop solution (final concentration of 10 mM citric acid (Sigma, 251275-500G)). Fluorescence was read on the Envision (excitation at 485 nm and emission at 535 nm; Perkin Elmer) or on the PheraSTAR (excitation at 485 nm and emission at 535 nm; BMG Labtech) fluorescence reader.
For all assay formats, data were reported as percent inhibition compared with control wells based on the following equation: % inh=1−((FLU−AveLow)/(AveHigh−AveLow)) where FLU=measured Fluorescence, AveLow=average Fluorescence of no enzyme control (n=16), and AveHigh=average Fluorescence of DMSO control (n=16). IC50 values were determined by curve fitting of the standard 4 parameter logistic fitting algorithm included in the Activity Base software package: IDBS XE Designer Model205. Data is fitted using the Levenburg Marquardt algorithm.

Chain of human recombinant USP30 (Q70CQ3 whole entry): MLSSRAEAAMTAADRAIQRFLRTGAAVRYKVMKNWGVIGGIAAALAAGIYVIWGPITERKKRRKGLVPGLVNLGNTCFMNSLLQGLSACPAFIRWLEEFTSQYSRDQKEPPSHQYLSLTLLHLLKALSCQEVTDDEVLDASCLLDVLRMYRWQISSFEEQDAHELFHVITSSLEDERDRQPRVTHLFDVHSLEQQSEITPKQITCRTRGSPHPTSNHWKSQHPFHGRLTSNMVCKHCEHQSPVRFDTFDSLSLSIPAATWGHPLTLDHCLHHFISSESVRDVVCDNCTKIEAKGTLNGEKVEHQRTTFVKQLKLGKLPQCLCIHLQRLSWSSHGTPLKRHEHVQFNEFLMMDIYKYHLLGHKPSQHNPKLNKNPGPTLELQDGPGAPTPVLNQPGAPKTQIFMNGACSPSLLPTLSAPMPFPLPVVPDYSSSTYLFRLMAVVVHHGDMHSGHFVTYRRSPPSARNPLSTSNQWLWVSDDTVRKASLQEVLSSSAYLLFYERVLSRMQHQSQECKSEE

Row | SMILES | pIC50
1 | N#CN1C[C@@H]2C[C@H]1CCN2C(=O)c1cc(-c2ccccc2Oc2ccccc2)[nH]n1 (single isomer, unassigned) [Compound 1-a] | 6.00 to 7.00
2 | N#CN1C[C@H]2C[C@@H]1CCN2C(=O)c1cc(-c2ccccc2Oc2ccccc2)[nH]n1 (single isomer, unassigned) [Compound 1b] | > 7.00
3 | N#CN1CC2CCC1C2NC(=O)c1cc(-c2ccccc2Oc2ccccc2)[nH]n1 (single isomer, unassigned) [Compound 2-a] | > 7.00
4 | N#CN1CC2CCC1C2NC(=O)c1cc(-c2ccccc2Oc2ccccc2)[nH]n1 (single isomer, unassigned) [Compound 2-b] | < 6.00
5 | N#CN1C[C@H]2C[C@@]2(NC(=O)c2cc(-c3ccccc3Oc3ccccc3)[nH]n2)C1 (single isomer, unassigned) [Compound 3-a] | 6.00 to 7.00
6 | N#CN1C[C@@H]2C[C@]2(NC(=O)c2cc(-c3ccccc3Oc3ccccc3)[nH]n2)C1 (single isomer, unassigned) [Compound 3-b] | > 7.00
7 | N#CN1C[C@@H]2C[C@H]1CN2C(=O)c1cc(-c2ccccc2Oc2ccccc2)[nH]n1 (single isomer, unassigned) [Compound 4-a] | 6.00 to 7.00
8 | N#CN1C[C@H]2C[C@@H]1CN2C(=O)c1cc(-c2ccccc2Oc2ccccc2)[nH]n1 (single isomer, unassigned) [Compound 4-b] | 6.00 to 7.00
9 | N#CN1C[C@@H](NC(=O)c2cc(-c3ccccc3Oc3ccccc3)[nH]n2)C2(CC2)C1 (single isomer, unassigned) [Compound 5-a] | > 7.00
10 | N#CN1C[C@H](NC(=O)c2cc(-c3ccccc3Oc3ccccc3)[nH]n2)C2(CC2)C1 (single isomer, unassigned) [Compound 5-b] | 6.00 to 7.00
11 | N#CN1C[C@H]2C[C@@H]1[C@H]2NC(=O)c1cc(-c2ccccc2Oc2ccccc2)[nH]n1 (single isomer, unassigned) [Compound 8-a] | 6.00 to 7.00
12 | N#CN1C[C@@H]2C[C@H]1[C@@H]2NC(=O)c1cc(-c2ccccc2Oc2ccccc2)[nH]n1 (single isomer, unassigned) [Compound 8-b] | 6.00 to 7.00
13 | N#CN1C[C@@H](NC(=O)c2cc(-c3ccccc3Oc3ccccc3)[nH]n2)CC12COC2 (single isomer, unassigned) [Compound 9-a] | < 6.00
14 | N#CN1C[C@H](NC(=O)c2cc(-c3ccccc3Oc3ccccc3)[nH]n2)CC12COC2 (single isomer, unassigned) [Compound 9-b] | < 6.00
15 | N#CN1C[C@@H]2CCC[C@]2(NC(=O)c2cc(-c3ccccc3Oc3ccccc3)[nH]n2)C1 (single isomer, unassigned) [Compound 20-a] | > 7.00
16 | N#CN1C[C@H]2CCC[C@@]2(NC(=O)c2cc(-c3ccccc3Oc3ccccc3)[nH]n2)C1 (single isomer, unassigned) [Compound 20-b] | > 7.00
17 | N#CN1C[C@@H]2CC[C@]2(NC(=O)c2cc(-c3ccccc3Oc3ccccc3)[nH]n2)C1 (stereo in doubt) [Compound 6-a, N-((1R,5S)-3-cyano-3-azabicyclo[3.2.0]heptan-1-yl)-5-(2-phenoxyphenyl)-1H-pyrazole-3-carboxamide] | > 7.00
18 | N#CN1C[C@H]2CC[C@@]2(NC(=O)c2cc(-c3ccccc3Oc3ccccc3)[nH]n2)C1 (stereo in doubt) [Compound 6-b, N-((1S,5R)-3-cyano-3-azabicyclo[3.2.0]heptan-1-yl)-5-(2-phenoxyphenyl)-1H-pyrazole-3-carboxamide] | 6.00 to 7.00
